The subject of one experiment is male C57BL mice. Briefly: Antianxiety effect by mouse light/dark box test. It is filed as in vivo. The note with it: sc, 30 minutes before test, 5 min observation, N 7. The method, then:
(1) The method of Belzung C., Misslin R., and Vogel E. (Reference: Behavioural effects of the benzodiazepine receptor partial agonist RO16-6028 in mice, Psychopharmacology, 97, 388-391, 1989) was modified. The present mouse light/dark box test was carried out according to such a modified method. As a test device used in this test, a lidded black acryl box (dark box, 15×10×20 cm) was connected to a lidless white acryl box (light box, 15×20×20 cm) using a black-acryl tunnel (10×7×4.5 cm), so as to prepare a light/dark box in which a mouse can freely move between the dark box and the light box. In this test device, in order to observe the behavior of the mouse, the anterior surface (20×20 cm) and back surface (20×20 cm) of the light box were made from transparent acryl. The illumination was set to provide in an illuminance of 150 Lux on the floor of the light box. Thereafter, each of male C57BL mice (20-35 g) was placed in the dark box, and the test was started. In this test, a test substance was subcutaneously administered to the test animal 30 minutes before the initiation of the test.
A state where the 4 legs of the mouse were contacted with on the floor of the light box was defined as stay at a light place, and the time when the mouse stayed at a light place was measured. The obtained time was used as an index of antianxiety action.

The next experiment has as its target T1, 5-HT1A receptor (Sus scrofa, UniProt A0A4X1UTF5).
T1 construct: Swine hippocampus was homogenized in a 50 mM Tris-Hcl buffer; from tissue; host or cells: swine hippocampus, membrane fraction
T1 sequence (A0A4X1UTF5 1-422): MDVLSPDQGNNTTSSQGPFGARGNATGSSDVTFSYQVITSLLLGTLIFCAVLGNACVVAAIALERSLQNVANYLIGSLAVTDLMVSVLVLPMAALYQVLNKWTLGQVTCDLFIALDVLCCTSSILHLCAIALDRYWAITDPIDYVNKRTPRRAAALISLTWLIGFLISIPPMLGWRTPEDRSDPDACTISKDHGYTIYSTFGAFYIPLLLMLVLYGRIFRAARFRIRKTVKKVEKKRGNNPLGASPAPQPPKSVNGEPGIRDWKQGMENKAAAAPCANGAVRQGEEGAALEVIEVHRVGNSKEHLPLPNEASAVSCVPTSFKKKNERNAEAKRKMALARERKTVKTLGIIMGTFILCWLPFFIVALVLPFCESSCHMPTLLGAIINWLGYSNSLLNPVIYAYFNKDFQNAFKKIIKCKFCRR
Briefly: Affinity for serotonin 1A receptor: inhibition of [3H]MPPF binding in swine hippocampal membrane fraction. Conditions: for IC50: [3H]MPPF 0.5 nM, swine hippocampal membrane, 37°C 30 min. The method, boiled down: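 Swine hippocampal membranes incubated 30 min at 37 °C with 0.5 nM [3H]MPPF and test compound in 50 mM Tris-HCl pH 7.4, 1% DMSO, with 10 mM MgCl2 (G-protein-coupled, high-affinity state) or 1 mM Gpp(NH)p (uncoupled, low-affinity state). Bound radioactivity measured by filtration and scintillation counting; nonspecific binding defined with 10 μM WAY-100,635. IC50 in each state; low/high IC50 ratio taken as an estimate of intrinsic activity.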

Another experiment concerns Sprague-Dawley male rats. Briefly: Effect of controlling memory disorder induced by 8-OH-DPAT in rats (8-arm radial maze). It is filed as in vivo, rat. Conditions: 0.3 mg/kg, s.c., 20 min before 8-OH-DPAT 0.5 mg/kg s.c.; Mean ± S.E., N 8. The source says:
(1) A Sprague-Dawley male rats (130-200 g) were bred in an individual cage and used in the present test. For appetite stimulation, the body weight of the rats was reduced to approximately 80% of the original weight by fasting. […] As a maze test, an elevated 8-arm radial maze (central platform diagonal length: 34 cm, arm length: 60 cm; arm width: 12 cm) was used. In order to allow the rats to remember the positions of baits placed on the arms, the rats were left on the platform of the maze in which baits had been placed on the tips of the 4 predetermined arms. Thereafter, the rats were left on the maze for a certain period of time or until it ate all the baits. This training was carried out 1 to 3 times a day. The rats that had sufficiently learned were subjected to the following experiment. A solvent or test substance was subcutaneously administered to the rats. Twenty minutes later, 0.5 mg/kg 8-OH-DPAT was subcutaneously administered thereto. Further, 20 minutes later, the same maze test as that in the training was carried out. A reference memory error was defined as an action to enter arms on which no baits had been placed, and a working memory error was defined as an action to enter again arms on which baits had previously been placed. Thus, the actions of the rat were recorded. In addition, the time required for the rat to take all the four baits was also recorded. […] (Reference:Yoshihiro Hiraga, “Effects of scopolamine upon delayed radial-arm maze performance in rats” Folia pharmacol. Japon. 97, 351-359 (1991)) The results are shown in Table 4.

Data on one compound can be found in patent publication US20050256103A1, “Indole derivative having piperidine ring” (Eisai Co., Ltd., priority 2004, published 2005).

One may read the IC50 as the concentration that gives 50% inhibition.

Structures are written as SMILES. Where two headings read alike, the source gives them in different places.

With `CNC(=O)c1ccc2ccn(C3CCN(CCc4c(OC)ccc5c4OC(C)(C)CC5=O)CC3)c2c1` [Compound 20, 1-{1-[2-(7-methoxy-2,2-dimethyl-4-oxochroman-8-yl)ethyl]piperidin-4-yl}-N-methyl-1H-indole-6-carboxamide], the “Time of stay at light place” value with male C57BL mice (0.03 mg/kg) stood at 46 ± 9.4 s. Further, the “Time of stay at light place” value with male C57BL mice (0.1 mg/kg) came out at 67 ± 19 s. The IC50 on 5-HT1A receptor (receptor in high affinity (G-protein binding, MgCl2 10 mM) state, read-out: High affinity IC50) worked out at 200 pM. Moreover, at 5-HT1A receptor (receptor in low affinity (G-protein non-binding, Gpp(NH)p 1 mM) state, read-out: Low affinity IC50), the half-inhibitory concentration (IC50) is 160 pM. Further, the L/H ratio at 5-HT1A receptor (low affinity IC50 divided by high affinity IC50, 1 or smaller = no intrinsic activity, 2 or greater = intrinsic activity) was 0.8. Also, in the experiment on Sprague-Dawley male rats, the Elapsed time is 52 ± 9.9 s, the “Number of reference memory errors” value came out at 1.50 ± 0.57 and the “Number of working memory errors” value is listed as 0.25 ± 0.16.
